These results are taken from US7632865B2, “Thioamides and salts thereof and cytokine production inhibitors containing both” (Ishihara Sangyo Kaisha, Ltd., priority 2004, dated 2009).

A word on the melting point: it is the temperature of the solid-liquid transition.

On to `O=[N+]([O-])c1ccc(Cl)c(C(=S)Nc2ccc(Oc3ncc(C(F)(F)F)cc3Cl)cc2)c1` [Compound No. 1, N-(4-(3-chloro-5-trifluoromethyl-2-pyridyloxy)phenyl)-2-chloro-5-nitrothiobenzamide], for which the melting point was in the range of 186 to 187 °C.
For `O=[N+]([O-])c1ccc(Cl)c(C(=S)Nc2ccc(Oc3cc(C(F)(F)F)cc(Cl)n3)cc2)c1` [Compound No. 2, N-(4-(6-chloro-4-trifluoromethyl-2-pyridyloxy)phenyl)-2-chloro-5-nitrothiobenzamide], the melting point is 186 to 187 °C.
`O=[N+]([O-])c1ccc(Cl)c(C(=S)NCCCOc2cc(C(F)(F)F)cc(N3CCSCC3)n2)c1` [Compound No. 4, N-(3-(6-thiomorpholino-4-trifluoromethyl-2-pyridyloxy)propyl)-2-chloro-5-nitrothiobenzamide] showed a melting point of 132 to 133 °C.
The same measure for `O=[N+]([O-])c1ccc(Cl)c(C(=S)Nc2ccc(Sc3ncc(C(F)(F)F)cc3Cl)cc2)c1` [Compound No. 5, N-(4-(3-chloro-5-trifluoromethyl-2-pyridylthio)phenyl)-2-chloro-5-nitrothiobenzamide]: 72 to 73 °C; for `O=[N+]([O-])c1ccc(Cl)c(C(=S)Nc2ccc(Nc3ncc(C(F)(F)F)cc3Cl)cc2)c1` [Compound No. 6, N-(4-(3-chloro-5-trifluoromethyl-2-pyridylamino)phenyl)-2-chloro-5-nitrothiobenzamide]: 199 to 200 °C.
For `O=[N+]([O-])c1ccc(Cl)c(C(=S)Nc2ccc(Sc3cc(C(F)(F)F)cc(Cl)n3)cc2)c1` [Compound No. 7, N-(4-(6-chloro-4-trifluoromethyl-2-pyridylthio)phenyl)-2-chloro-5-nitrothiobenzamide], the melting point lay within 183 to 186 °C.
The same measure for `CN(C)c1cc(C(F)(F)F)cc(OCCCNC(=S)c2cc([N+](=O)[O-])ccc2Cl)n1` [Compound No. 8, N-(3-(6-dimethylamino-4-trifluoromethyl-2-pyridyloxy)propyl)-2-chloro-5-nitrothiobenzamide]: 102 to 103 °C.
To `O=[N+]([O-])c1ccc(Cl)c(C(=S)Nc2ccc(Oc3ncc(C(F)(F)F)cc3Cl)cc2F)c1` [Compound No. 11, N-(4-(3-chloro-5-trifluoromethyl-2-pyridyloxy)-2-fluorophenyl)-2-chloro-5-nitrothiobenzamide] belongs 193 °C; to `O=[N+]([O-])c1ccc(F)c(C(=S)Nc2ccc(Oc3ncc(C(F)(F)F)cc3Cl)cc2F)c1` [Compound No. 12, N-(4-(3-chloro-5-trifluoromethyl-2-pyridyloxy)-2-fluorophenyl)-2-fluoro-5-nitrothiobenzamide], 146 to 147 °C.
To `FC(F)(F)c1cnc(Oc2ccc(NC(=S)c3cnc(Cl)cc3Cl)cc2)c(Cl)c1` [Compound No. 13, N-(4-(3-chloro-5-trifluoromethyl-2-pyridyloxy)phenyl)-4,6-dichlorothionicotinamide] belongs 175 to 176 °C.
As to `CN(C)c1cc(C(F)(F)F)cc(OCCCNC(=S)c2cc([N+](=O)[O-])ccc2F)n1` [Compound No. 16, N-(3-(6-dimethylamino-4-trifluoromethyl-2-pyridyloxy)propyl)-2-fluoro-5-nitrothiobenzamide], the melting point was 130 to 133 °C.
`N#Cc1ccc(Cl)c(C(=S)Nc2ccc(Oc3ncc(C(F)(F)F)cc3Cl)c(-n3cccc3)c2)c1` [Compound No. 17, N-(4-(3-chloro-5-trifluoromethyl-2-pyridyloxy)-3-(1H-pyrrol-1-yl)phenyl)-2-chloro-5-cyanothiobenzamide] showed a melting point of 229 to 230 °C.
To `COc1cc(OC)nc(OCCCNC(=S)c2cc([N+](=O)[O-])ccc2Cl)n1` [Compound No. 18, N-(3-(4,6-dimethoxy-2-pyrimidinyloxy)propyl)-2-chloro-5-nitrothiobenzamide] belongs 119 to 120 °C; to `COc1cc(OC)nc(Oc2ccc(NC(=S)c3cc([N+](=O)[O-])ccc3Cl)cc2)n1` [Compound No. 19, N-(4-(4,6-dimethoxy-2-pyrimidinyloxy)phenyl)-2-chloro-5-nitrothiobenzamide], 220 to 222 °C.
